Measurements taken from PMC10458862, “Binding Specificity of a Novel Cyclo/Maltodextrin-Binding Protein and Its Role in the Cyclodextrin ABC Importer System from Thermoanaerobacterales” (Molecules, 2023).
Where two headings read alike, the source gives them in different places. Marks after values point to notes of the source that are not given here.

Experiments:
MdxE [1] = target: T1, MdxE (Thermoanaerobacter mathranii subsp. mathranii, UniProt A0ABM5LRQ5); assay: ITC measurements of MdxE-ligand binding; parameters: species or system Thermoanaerobacter mathranii subsp. mathranii A3
Description: To assess the binding affinities of MdxE toward different linear dextrins and CDs for the CM-CD pathway, functional experiments of MdxE-ligand complex formation were performed using isothermal titration calorimetry (ITC) to determine the dissociation constant (Kd) and enthalpy (ΔH) for ligand binding, as well as the Gibbs free energy (ΔG) contribution to the binding (Figure 3).
Purified MdxE at 4 μM was titrated with 0.8 mM CDs and linear dextrins using a VP-ITC calorimeter (Cytiva) at 55 °C. In all measurements, the sample cell and syringe were filled with protein and ligand solution, respectively, and the reference cell was filled with ultrapure water. The stirring speed of the sample syringe during measurements was 250 rpm. After baseline stabilization and an initial injection of 2 µL, 25 successive injections of 11 µL were carried out with a 5 min equilibration period between injections. Since both protein and ligands were in buffer C, the heat of dilution was neglected in the experiments. The resulting data were analyzed in triplicate (n = 3) using the Origin 7 ITC analysis v7.0 software from Microcal by fitting the titration curves to a single binding site model.

MdxE [2] = target: T1, MdxE; assay: ANS fluorescence determination of protein surface hydrophobicity (Ho) of MdxE-ligand complexes; parameters: species or system Thermoanaerobacter mathranii subsp. mathranii A3; conditions: for Ho (protein surface hydrophobicity, slope of RFU versus MdxE concentration): MdxE 2–14 µM, 350 µM ligand, 20 µM ANS, λmax = 485 nm, letters = Tukey groups (p < 0.05)
Description: To evaluate the switching from an open to a closed form of productive MdxE-ligand complexes obtained with the sugars listed in Table 1, changes in the protein surface hydrophobicity (Ho) of MdxE-ligand complexes using the fluorescent probe 8-anilinonaphthalene-1-sulfonate (ANS) were determined (Figure 4).
The changes in H0 associated with the open-to-closed conformational changes of productive MdxE-ligand complexes were determined based on the method described previously, using a Nanodrop ND-3300 fluorospectrometer (Thermo Fisher, Waltham, MA, USA) controlled by ND-3300 v2.8.0 software with ANS as a fluorescence probe at an excitation wavelength of 365 nm and 400–600 nm as the range for emission scan. The fluorescent response was measured in RFU using buffer C for all solutions. […] For H0 measurements, MdxE-ligand complexes were heated at 55 °C for 10 min. Subsequently, ANS was added to form the (MdxE-ligand)-ANS complexes, and the solutions were heated again at 55 °C for 3 min; then, the solutions were cooled to room temperature. Data were analyzed in triplicate (n = 3), and H0 was estimated as the slope of the linear curve fitted for RFU versus MdxE concentrations plotted at the maximum emission wavelength (λ = 485 nm) using the emtrends() function from emmeans package in R [58, 59]. A Tukey’s test (α = 0.05) for multiple comparisons was performed to determine significant differences in H0 between CDs and linear dextrins tested. All fluorescence measurements were made at 22 °C.

TvuCMBP = target: TvuCMBP; parameters: method as in PMID 17371546; conditions: ND = not detected; cited from earlier work
EcoMBP = conditions: cited from earlier work
CymE = target: CymE; parameters: method as in PMID 9573146; conditions: ND = not detected; cited from earlier work
AcyMBP = target: AcyMBP; parameters: method as in PMID 11053372; conditions: cited from earlier work
[3] = ITC, 55 °C, 4 μM MdxE titrated with 0.8 mM ligand, single binding site model, n = 3, ND = not detected, read-out: Kd MdxE

T1 sequence (A0ABM5LRQ5 entry or part of it): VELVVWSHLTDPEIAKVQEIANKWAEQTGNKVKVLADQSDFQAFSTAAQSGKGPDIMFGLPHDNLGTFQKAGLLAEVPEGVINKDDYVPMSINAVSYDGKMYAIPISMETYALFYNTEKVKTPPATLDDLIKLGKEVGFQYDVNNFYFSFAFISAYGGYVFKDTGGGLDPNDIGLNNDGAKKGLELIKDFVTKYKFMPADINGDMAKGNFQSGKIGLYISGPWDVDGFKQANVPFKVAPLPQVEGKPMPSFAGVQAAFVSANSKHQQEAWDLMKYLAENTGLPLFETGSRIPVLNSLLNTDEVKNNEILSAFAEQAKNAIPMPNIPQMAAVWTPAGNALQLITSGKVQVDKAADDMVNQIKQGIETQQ

Compound | Kd (MdxE [1]; [3]) [nM] | ΔH (MdxE [1]; ITC, 55 °C, ND = not detected) [kcal/mol] | Ho (protein surface hydrophobicity, slope of RFU versus MdxE concentration) (MdxE [2]) | open-to-closed conformational change of MdxE (MdxE [2]; fluorescence analysis with ANS) | Kd (TvuCMBP) [nM] | Kd (EcoMBP) [nM] | Kd (CymE) [nM] | ΔG (MdxE [1]; ITC, 55 °C, ND = not detected) [kcal/mol] | Kd MdxE (MdxE [1]; ITC, 55 °C, 4 μM MdxE titrated with 0.8 mM ligand, single binding site model, n = 3, ND = not detected) | MdxE-ligand complex formation by fluorescence measurements (MdxE [2]; fluorescence analysis with ANS) | Kd (AcyMBP) [nM] | Kd (MdxE [1]) [nM]
OC[C@H]1O[C@@H]2O[C@H]3[C@H](O)[C@@H](O)[C@@H](O[C@H]4[C@H](O)[C@@H](O)[C@@H](O[C@H]5[C@H](O)[C@@H](O)[C@@H](O[C@H]6[C@H](O)[C@@H](O)[C@@H](O[C@H]7[C@H](O)[C@@H](O)[C@@H](O[C@H]8[C@H](O)[C@@H](O)[C@@H](O[C@H]1[C@H](O)[C@H]2O)O[C@@H]8CO)O[C@@H]7CO)O[C@@H]6CO)O[C@@H]5CO)O[C@@H]4CO)O[C@@H]3CO [β-CD] | 2040 | -5.28 | 41.8 ^b | solely triggered | 1200 | 1000 | 140 | – | – | – | – | –
OC[C@H]1O[C@@H]2O[C@H]3[C@H](O)[C@@H](O)[C@@H](O[C@H]4[C@H](O)[C@@H](O)[C@@H](O[C@H]5[C@H](O)[C@@H](O)[C@@H](O[C@H]6[C@H](O)[C@@H](O)[C@@H](O[C@H]7[C@H](O)[C@@H](O)[C@@H](O[C@H]8[C@H](O)[C@@H](O)[C@@H](O[C@H]9[C@H](O)[C@@H](O)[C@@H](O[C@H]1[C@H](O)[C@H]2O)O[C@@H]9CO)O[C@@H]8CO)O[C@@H]7CO)O[C@@H]6CO)O[C@@H]5CO)O[C@@H]4CO)O[C@@H]3CO [γ-CD] | 1510 | -6.50 | 24.5 ^c | – | 230 | – | 300 | – | – | – | – | –
maltohexaose [G6] | 1850 | -12.98 | 26.8 ^c | – | – | – | – | -8.61 | – | – | – | –
OC[C@H]1O[C@H](O[C@H]2[C@H](O)[C@@H](O)C(O)O[C@@H]2CO)[C@H](O)[C@@H](O)[C@@H]1O (mixture of isomers) [G2, maltose] | – | – | 15.1 ^d | – | 410 | 1000 | – | – | no binding interaction was observed | no MdxE-G2 complex formation was observed | 1500 | –
maltoheptaose [G7] | 910 | -11.54 | 27.1 ^c | – | – | – | 70000 | -9.09 | – | – | – | –
OC[C@H]1O[C@H](O[C@H]2[C@H](O)[C@@H](O)[C@@H](O[C@H]3[C@H](O)[C@@H](O)C(O)O[C@@H]3CO)O[C@@H]2CO)[C@H](O)[C@@H](O)[C@@H]1O (mixture of isomers) [G3, maltotriose] | 3020 | -8.64 | 24.3 ^c | – | 970 | 200 | – | -8.50 | – | – | – | –
OC[C@H]1O[C@@H]2O[C@H]3[C@H](O)[C@@H](O)[C@@H](O[C@H]4[C@H](O)[C@@H](O)[C@@H](O[C@H]5[C@H](O)[C@@H](O)[C@@H](O[C@H]6[C@H](O)[C@@H](O)[C@@H](O[C@H]7[C@H](O)[C@@H](O)[C@@H](O[C@H]1[C@H](O)[C@H]2O)O[C@@H]7CO)O[C@@H]6CO)O[C@@H]5CO)O[C@@H]4CO)O[C@@H]3CO [α-CD] | – | -6.83 | 37.1 ^a | solely triggered | 730 | – | 20 | – | – | – | – | 610
maltopentaose [G5] | 2440 | -13.94 | 27.3 ^c | – | 200 | – | – | -8.30 | – | – | – | –
